Here are results for 4 molecules from patent publication US20100160356A1, “NOVEL CYCLOBUTYL COMPOUNDS AS KINASE INHIBITORS” (priority 2006, published 2010).

Each structure is given as a SMILES string. pIC50: −log10 of the molar value.

What is called pIC50 is the IC50 on a negative log10 scale, so that one unit is a factor of ten. The term melting point denotes the temperature, or range, at which the solid turns liquid.

For one series, the target named is T1, SGK1 (Homo sapiens, UniProt O00141).
T1 sequence (O00141 1-431): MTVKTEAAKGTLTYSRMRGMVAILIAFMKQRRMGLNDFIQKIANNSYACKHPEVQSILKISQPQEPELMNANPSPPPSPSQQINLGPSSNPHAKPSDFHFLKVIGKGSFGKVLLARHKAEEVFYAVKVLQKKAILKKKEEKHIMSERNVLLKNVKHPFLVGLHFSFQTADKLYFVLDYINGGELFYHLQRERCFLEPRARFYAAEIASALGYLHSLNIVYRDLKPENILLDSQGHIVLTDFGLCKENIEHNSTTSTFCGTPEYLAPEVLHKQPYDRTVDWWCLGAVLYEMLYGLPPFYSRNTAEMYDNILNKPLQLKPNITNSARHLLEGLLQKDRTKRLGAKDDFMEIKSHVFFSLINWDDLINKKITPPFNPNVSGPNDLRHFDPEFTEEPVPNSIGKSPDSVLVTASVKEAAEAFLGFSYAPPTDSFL
The series is described as follows: Inhibition of SGK1 (flashplate assay). It is filed as biochemical. To be noted: flashplate method. The method, then:
The test plates used are 384-well flashplate microtitre plates from Perkin Elmer (USA). The components of the kinase reaction are pipetted into the assay plate. The SGK1 kinase is incubated for 3 hr. with radioactively labelled ^33P-ATP in the presence and absence of test substances in a total volume of 100 μl at room temperature together with biotinylated poly(Glu, Tyr)4:1. The reaction is terminated using 25 μl of a 200 mM EDTA solution. After incubation for a further 30 min at room temperature, the supernatants are removed by suction, and the wells are washed three times with 100 μl of 0.9% NaCl solution each time. The radioactivity is measured using a Topcount scintillation counter (PerkinElmer, USA). IC50 values are calculated using the RS1 computer program.

The target in series [1] is T2, FAK (focal adhesion kinase) (Homo sapiens, UniProt Q05397).
T2 construct: endogenous in cells; host or cells: Calu-6 or HT-29
Put plainly: Inhibition of FAK (ELISA assay), FAK phosphorylation in cells. It is filed as cell-based. To be noted: human cells with FAK amplification. Summed up: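 Cells pretreated 45 min with increasing compound concentrations, with a reference inhibitor series as internal control. FAK from lysates captured by specific antibody on ELISA plate or LUMINEX beads; tyrosine phosphorylation detected with anti-phosphotyrosine antibody by chemiluminescence or fluorescence.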
For orientation: ELISA stands for enzyme-linked immunosorbent assay.

Another series addresses T3, IGF1 receptor (IGF1R) (Homo sapiens, UniProt P08069).
T3 construct: endogenous in cells; host or cells: MCF-7 or Calu-6
The series is described as follows: Inhibition of IGF1R (ELISA assay), IGF1-stimulated autophosphorylation in cells. It is filed as cell-based. To be noted: human tumour cells stimulated with IGF1, read-out: IC50 IGF (ELISA). Summed up: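 Cells were preincubated 45 min with increasing compound concentrations, then stimulated 5 min with IGF1. Phospho-IGF1R in lysates was captured by a receptor-specific antibody and detected with anti-phosphotyrosine antibody via chemiluminescence ELISA or fluorescent LUMINEX read-out.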

A further series has as its target PDGFRβ (Homo sapiens, UniProt P09619). The series is described as follows: Inhibition of PDGFRβ (flashplate assay). It is filed as biochemical. To be noted: flashplate method. Summed up: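 Autophosphorylation of PDGFRβ kinase with ^33P-ATP, ± test compound, 3 hr at room temperature in flashplates. Stopped with EDTA, washed, and bound radioactivity counted by scintillation. IC50 calculated from the counts.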

The target of another series is T4, insulin receptor (InsR) (Homo sapiens, UniProt P06213).
T4 construct: endogenous in cells; host or cells: HepG2
Put plainly: Inhibition of InsR (ELISA assay), insulin-stimulated autophosphorylation in cells. The class given is cell-based. To be noted: human cells stimulated with insulin. On the procedure:
Cultivated human cells which express the insulin receptor (InsR) (for example HepG2) are stimulated using human insulin, the natural ligand of InsR. The stimulation induces autophosphorylation of tyrosine residues in the cytoplasmatic InsR domain, which triggers signal transduction cascades, which initiate various biological reactions of the cells. The amount of phosphorylated InsR is determined by a receptor-specific capture ELISA or an analogous LUMINEX assay. The InsR from cell lysates is bound to a 96-well ELISA plate or LUMINEX beads by means of a specific antibody (“capturing”), and the tyrosine phosphorylation is detected using a biotin-labelled anti-phosphotyrosine antibody and a streptavidin-peroxidase conjugate by a chemiluminescence method or by means of a fluorescence-labelled anti-phosphotyrosine antibody. For determination of the activity of kinase inhibitors, cells are pretreated with increasing concentrations of these compounds for 45 min and subsequently stimulated using insulin for 5 min. As internal control, the biological activity of the ligand insulin is checked, and a concentration series of a reference inhibitor is measured.

T2 sequence (Q05397 whole entry): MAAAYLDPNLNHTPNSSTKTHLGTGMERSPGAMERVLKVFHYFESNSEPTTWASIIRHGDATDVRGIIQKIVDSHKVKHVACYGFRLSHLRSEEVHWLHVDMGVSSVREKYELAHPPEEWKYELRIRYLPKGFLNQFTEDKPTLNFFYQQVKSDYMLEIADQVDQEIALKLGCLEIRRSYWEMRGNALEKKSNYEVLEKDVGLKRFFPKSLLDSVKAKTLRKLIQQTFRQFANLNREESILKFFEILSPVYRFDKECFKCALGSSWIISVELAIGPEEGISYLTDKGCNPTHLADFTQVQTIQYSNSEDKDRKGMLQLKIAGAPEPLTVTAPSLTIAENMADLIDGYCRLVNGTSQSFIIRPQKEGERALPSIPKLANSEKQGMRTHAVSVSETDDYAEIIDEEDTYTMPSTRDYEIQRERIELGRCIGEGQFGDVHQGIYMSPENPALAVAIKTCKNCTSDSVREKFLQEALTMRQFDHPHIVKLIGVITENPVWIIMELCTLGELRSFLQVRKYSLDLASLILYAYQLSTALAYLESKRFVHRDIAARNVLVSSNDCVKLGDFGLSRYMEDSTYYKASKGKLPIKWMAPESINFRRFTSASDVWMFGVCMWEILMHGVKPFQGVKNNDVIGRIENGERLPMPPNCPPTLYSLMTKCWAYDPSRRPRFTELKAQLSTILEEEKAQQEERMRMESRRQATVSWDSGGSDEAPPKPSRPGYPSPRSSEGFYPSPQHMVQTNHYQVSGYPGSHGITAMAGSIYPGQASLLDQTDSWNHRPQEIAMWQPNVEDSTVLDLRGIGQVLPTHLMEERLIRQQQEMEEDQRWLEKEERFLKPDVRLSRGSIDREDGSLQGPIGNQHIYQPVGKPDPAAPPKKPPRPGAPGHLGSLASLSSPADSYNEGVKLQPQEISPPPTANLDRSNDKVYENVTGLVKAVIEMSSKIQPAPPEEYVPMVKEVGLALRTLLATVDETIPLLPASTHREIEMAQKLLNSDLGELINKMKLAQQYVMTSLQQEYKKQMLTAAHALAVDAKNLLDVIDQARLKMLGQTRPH
T3 sequence (P08069 31-1367): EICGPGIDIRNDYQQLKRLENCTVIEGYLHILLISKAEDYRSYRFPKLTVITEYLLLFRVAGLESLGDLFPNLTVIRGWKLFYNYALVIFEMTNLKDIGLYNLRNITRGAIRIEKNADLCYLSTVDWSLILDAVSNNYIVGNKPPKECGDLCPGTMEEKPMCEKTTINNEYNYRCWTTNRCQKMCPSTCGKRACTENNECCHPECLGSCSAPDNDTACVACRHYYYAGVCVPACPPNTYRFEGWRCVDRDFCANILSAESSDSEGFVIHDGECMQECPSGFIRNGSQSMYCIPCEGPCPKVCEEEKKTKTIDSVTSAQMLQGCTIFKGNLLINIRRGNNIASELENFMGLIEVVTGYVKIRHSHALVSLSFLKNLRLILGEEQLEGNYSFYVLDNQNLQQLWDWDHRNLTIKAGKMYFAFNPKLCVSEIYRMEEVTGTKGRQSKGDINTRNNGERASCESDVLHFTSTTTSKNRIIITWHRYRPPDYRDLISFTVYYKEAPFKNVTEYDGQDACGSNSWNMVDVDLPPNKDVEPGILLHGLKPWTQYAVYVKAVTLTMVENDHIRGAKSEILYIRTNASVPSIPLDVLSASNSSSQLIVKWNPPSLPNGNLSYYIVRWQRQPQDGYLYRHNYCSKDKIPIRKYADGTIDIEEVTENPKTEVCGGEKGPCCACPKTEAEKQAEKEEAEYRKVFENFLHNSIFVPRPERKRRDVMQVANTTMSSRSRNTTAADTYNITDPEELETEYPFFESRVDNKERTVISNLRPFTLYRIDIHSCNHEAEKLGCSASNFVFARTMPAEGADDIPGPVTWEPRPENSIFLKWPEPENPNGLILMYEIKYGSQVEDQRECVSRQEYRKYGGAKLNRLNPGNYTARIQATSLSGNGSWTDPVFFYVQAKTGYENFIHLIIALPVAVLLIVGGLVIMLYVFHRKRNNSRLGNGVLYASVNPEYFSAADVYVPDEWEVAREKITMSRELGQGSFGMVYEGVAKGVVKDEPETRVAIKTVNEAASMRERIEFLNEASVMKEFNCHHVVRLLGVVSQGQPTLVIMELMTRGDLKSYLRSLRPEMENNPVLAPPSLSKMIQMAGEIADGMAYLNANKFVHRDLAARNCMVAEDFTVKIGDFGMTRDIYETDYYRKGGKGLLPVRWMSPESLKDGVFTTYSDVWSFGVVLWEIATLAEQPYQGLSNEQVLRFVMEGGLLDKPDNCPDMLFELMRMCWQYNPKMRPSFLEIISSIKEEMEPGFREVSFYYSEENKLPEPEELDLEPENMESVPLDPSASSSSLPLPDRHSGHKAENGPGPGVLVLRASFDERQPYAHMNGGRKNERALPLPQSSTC
Sequence of PDGFRβ (P09619 33-1106, species assumed): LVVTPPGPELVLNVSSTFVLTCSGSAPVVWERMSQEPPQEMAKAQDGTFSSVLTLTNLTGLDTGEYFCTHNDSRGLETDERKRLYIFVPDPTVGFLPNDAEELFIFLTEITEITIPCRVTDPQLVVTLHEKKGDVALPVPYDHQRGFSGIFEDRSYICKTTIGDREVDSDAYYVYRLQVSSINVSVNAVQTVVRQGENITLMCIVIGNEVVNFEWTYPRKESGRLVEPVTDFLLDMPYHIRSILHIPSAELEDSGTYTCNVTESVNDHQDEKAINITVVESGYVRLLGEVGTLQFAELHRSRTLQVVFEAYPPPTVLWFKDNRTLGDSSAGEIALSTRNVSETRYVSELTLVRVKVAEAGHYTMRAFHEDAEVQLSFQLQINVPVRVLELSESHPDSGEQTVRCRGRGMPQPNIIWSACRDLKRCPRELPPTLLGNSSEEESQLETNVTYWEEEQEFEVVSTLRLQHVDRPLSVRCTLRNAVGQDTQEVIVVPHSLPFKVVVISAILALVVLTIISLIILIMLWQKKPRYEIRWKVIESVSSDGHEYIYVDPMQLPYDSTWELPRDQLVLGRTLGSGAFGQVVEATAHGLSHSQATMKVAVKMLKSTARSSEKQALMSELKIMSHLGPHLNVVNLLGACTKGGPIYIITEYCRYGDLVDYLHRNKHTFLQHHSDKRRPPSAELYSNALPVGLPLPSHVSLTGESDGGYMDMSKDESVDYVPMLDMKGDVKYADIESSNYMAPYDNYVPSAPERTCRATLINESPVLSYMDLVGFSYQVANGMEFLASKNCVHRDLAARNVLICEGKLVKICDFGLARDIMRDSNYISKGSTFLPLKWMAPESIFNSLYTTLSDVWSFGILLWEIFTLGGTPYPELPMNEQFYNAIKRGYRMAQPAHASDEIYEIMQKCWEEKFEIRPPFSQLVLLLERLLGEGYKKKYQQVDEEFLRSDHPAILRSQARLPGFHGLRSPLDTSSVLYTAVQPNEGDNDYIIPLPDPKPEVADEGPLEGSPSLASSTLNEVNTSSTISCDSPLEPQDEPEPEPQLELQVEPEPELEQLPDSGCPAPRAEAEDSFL
T4 sequence (P06213 28-1382): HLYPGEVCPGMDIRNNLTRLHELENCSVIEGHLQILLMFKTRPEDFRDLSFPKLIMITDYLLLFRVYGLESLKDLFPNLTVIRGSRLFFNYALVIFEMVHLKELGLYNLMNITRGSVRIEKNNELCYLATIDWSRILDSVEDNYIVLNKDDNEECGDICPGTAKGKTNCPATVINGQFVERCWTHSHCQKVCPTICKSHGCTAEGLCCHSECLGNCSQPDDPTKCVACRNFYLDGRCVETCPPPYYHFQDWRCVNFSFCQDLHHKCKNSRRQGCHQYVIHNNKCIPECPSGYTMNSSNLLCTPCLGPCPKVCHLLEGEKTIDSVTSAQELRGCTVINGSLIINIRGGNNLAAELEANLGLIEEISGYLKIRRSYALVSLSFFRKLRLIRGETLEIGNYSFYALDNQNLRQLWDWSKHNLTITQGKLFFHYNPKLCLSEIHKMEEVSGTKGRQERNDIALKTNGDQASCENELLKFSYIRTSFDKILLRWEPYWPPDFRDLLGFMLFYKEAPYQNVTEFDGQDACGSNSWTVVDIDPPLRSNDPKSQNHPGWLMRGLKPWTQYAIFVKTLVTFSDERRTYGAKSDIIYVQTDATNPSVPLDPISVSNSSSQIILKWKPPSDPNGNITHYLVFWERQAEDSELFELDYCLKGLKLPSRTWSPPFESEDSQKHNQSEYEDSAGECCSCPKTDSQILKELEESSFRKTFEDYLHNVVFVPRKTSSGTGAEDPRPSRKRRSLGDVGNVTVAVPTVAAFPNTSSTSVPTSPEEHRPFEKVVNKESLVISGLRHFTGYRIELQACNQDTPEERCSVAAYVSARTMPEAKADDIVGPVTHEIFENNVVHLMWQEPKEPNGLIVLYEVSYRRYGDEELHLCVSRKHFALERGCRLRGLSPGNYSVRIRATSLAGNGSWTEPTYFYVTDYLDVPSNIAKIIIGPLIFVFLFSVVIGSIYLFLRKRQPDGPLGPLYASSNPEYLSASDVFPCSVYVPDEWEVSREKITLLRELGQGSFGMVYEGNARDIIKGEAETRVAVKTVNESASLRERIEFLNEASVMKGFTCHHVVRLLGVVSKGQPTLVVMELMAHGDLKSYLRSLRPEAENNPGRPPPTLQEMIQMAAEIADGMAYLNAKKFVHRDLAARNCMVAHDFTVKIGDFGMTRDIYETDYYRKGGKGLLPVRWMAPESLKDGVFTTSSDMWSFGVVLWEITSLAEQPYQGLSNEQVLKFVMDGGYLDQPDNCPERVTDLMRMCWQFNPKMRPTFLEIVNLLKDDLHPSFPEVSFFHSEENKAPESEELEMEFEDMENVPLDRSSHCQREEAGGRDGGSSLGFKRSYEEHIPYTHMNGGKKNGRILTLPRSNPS

On to `NCC1CC(n2cc(-c3cc4ccccc4o3)c3c(N)ncnc32)C1` (stereo not drawn) [Compound 37], for which the pIC50 was 5.21 against SGK1, 5.21 in series [1], 4.54 on IGF1 receptor (IGF1R) and 6.77 on PDGFRβ.
Molecule `Nc1ncnc2c1c(-c1cccc(O)c1)cn2C1CC(CN2CCCC2)C1` (stereo not drawn) [Compound 1, 3-[4-amino-7-(3-pyrrolidin-1-ylmethylcyclobutyl)-7H-pyrrolo[2,3-d]pyrimidin-5-yl]phenol] returned a melting point of 193 to 194 °C. The molecule also showed a pIC50 on insulin receptor (InsR) of 5.68. The same molecule had a pIC50 in series [1] of 7.11. For the same molecule, at IGF1 receptor (IGF1R), the pIC50 was 5.62. At PDGFRβ, this molecule showed a pIC50 of 7.01.
For `Nc1ncnc2c1c(-c1cccc(O)c1)cn2C1CC(CN2CCCC2)C1` (stereo not drawn) [Compound 2, 3-[4-Amino-7-(3-pyrrolidin-1-ylmethylcyclobutyl)-7H-pyrrolo[2,3-d]pyrimidin-5-yl]phenol], the pIC50 is 5.13 against SGK1, 6.59 in series [1], 5.23 at IGF1 receptor (IGF1R) and 6.92 against PDGFRβ.
`NCC1CC(n2cc(-c3ccc4[nH]ccc4c3)c3c(N)ncnc32)C1` (stereo not drawn) [Compound 3, 7-(3-Aminomethylcyclobutyl)-5-(1H-indol-5-yl)-7H-pyrrolo[2,3-d]pyrimidin-4-ylamine] came in with a melting point of 142 to 144 °C. The molecule further had a pIC50 at insulin receptor (InsR) of 4.92. Further, the pIC50 in series [1] was 6.43. The pIC50 at IGF1 receptor (IGF1R) is 5.30. This molecule also showed a pIC50 against PDGFRβ of 6.82.
